Source: US20220370381A1 (priority 2016, published 2022)

Tests used:
Na channel = test system: T1, Na channel; assay: Competitive radioligand binding assay, Na channel; set-up: species or system Rat; conditions: test article 1×10^−6 and 1×10^−5 mol/L; rat brain
T1 construct: other: test article 1×10^−6 and 1×10^−5 mol/L; rat brain

Swiss OF-1 mice [1] = assay: Spontaneous alternation in the Y-maze, dizocilpine-induced deficit; assay type: in vivo, mouse
[2] = target: T2, human β-2 adrenergic receptor (Homo sapiens, UniProt P07550); assay: β-2 adrenergic receptor antagonist assay, agonist-induced cAMP production (HTRF); assay type: cell-based; set-up: expressed in transfected cells; host or cells: HEK-293; conditions: inhibition of isoproterenol-induced cAMP production
Description: Transfected HEK-293 cells expressing human β-1 adrenergic receptor, human β-2 adrenergic receptor, and human β3 adrenergic receptor, respectively, were prepared using cloned human cDNA. See H FRIELLE, T., COLLINS, S., DANIEL, K. W., CARON, M. G., LEFKOWITZ, R. J., KOBILKA, B. K. (1987), Cloning of the cDNA for the human beta1-adrenergic receptor, Proc. Natl. Acad. Sci. U.S.A., 84,7920, and BAKER, J. G. (2005) The selectivity of Beta-adrenoreceptor antagonists at the human Beta1, Beta2 and Beta3 adrenoreceptor, Brit.
Transfected cells were suspended in HBSS buffer (Invitrogen) complemented with 20 mM HEPES (pH 7.4) and 500 μM IBMX. […] The cells were then distributed in 96 well microplates (see FIG. 15 for plating densities).
After plating, the cells were induced by adding reference agonist. See FIG. 15 for reference agonists and concentrations used for each assay. […] The cells were then incubated 30 minutes at room temperature.
Subsequently, the cells were lysed and a fluorescence acceptor (D2-labeled cAMP) and a fluorescence donor (anti-cAMP antibody labeled with europium cryptate) were added to the wells.
Standard reference antagonists were tested in each experiment at several concentrations to generate a concentration-response curve from which its IC50 value is calculated.
EC50 values (concentration producing a half-maximal response) and IC50 values (concentration causing a half-maximal inhibition of the control agonist response) were determined by non-linear regression analysis of the concentration-response curves generated with mean replicate values using Hill equation curve fitting: […]
For the antagonists, the apparent dissociation constants (KB) were calculated using the modified Cheng Prusoff equation:
KB=IC50/[1+(A/EC50A)], where

Sigma non-selective = assay: Competitive radioligand binding assay, sigma non-selective; set-up: species or system Guinea pig; conditions: test article 1×10^−6 and 1×10^−5 mol/L; guinea pig brain
serotonin 5-HT1A = target: T3, serotonin 5-HT1A (Rattus norvegicus, UniProt P19327); assay: Competitive radioligand binding assay, serotonin 5-HT1A
T3 construct: serotonin 5-HT1A (rat cerebral cortex); from tissue; host or cells: rat cerebral cortex
T3 sequence (P19327 1-422): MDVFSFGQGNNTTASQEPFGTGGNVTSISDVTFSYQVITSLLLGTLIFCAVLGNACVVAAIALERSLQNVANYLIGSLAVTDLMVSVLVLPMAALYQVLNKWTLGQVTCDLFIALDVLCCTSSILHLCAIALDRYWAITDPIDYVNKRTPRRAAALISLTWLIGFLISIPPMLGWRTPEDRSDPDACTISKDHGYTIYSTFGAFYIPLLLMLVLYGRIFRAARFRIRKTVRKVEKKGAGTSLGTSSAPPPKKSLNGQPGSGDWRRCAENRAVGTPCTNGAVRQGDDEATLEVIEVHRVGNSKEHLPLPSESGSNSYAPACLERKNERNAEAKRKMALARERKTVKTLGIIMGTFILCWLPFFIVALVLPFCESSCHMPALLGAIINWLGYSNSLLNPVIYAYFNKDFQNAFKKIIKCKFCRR

Sigma 1 [3] = target: T4, Sigma 1 (Cavia porcellus, UniProt Q60492); assay: Sigma-1 receptor tissue bioassay, guinea pig vas deferens, agonist activity (twitch contraction); set-up: Segments of guinea pig vas deferens were suspended in 20-ml organ baths; from tissue; host or cells: guinea pig vas deferens; conditions: field-stimulated guinea pig vas deferens, compound alone
[4] = test system: homozygous scn1Lab−/− mutant zebrafish; assay: Forebrain local field potential (LFP) recordings in homozygous scn1Lab−/− mutant zebrafish larvae; assay type: in vivo; conditions: 25, 50 or 100 μM for 24 h; p<0.05 vs. VHC
Description: (§1) ZF larvae were treated on 6 dpf with vehicle (VHC, 0.1% dimethyl sulfoxide, DMSO, or FA (25, 50 or 100 μM) for 24 h. Thereafter, the locomotor activity (behavior) was monitored by an automated tracking device. Subsequently, forebrain local field potentials and forebrain activity (LFPs, brain activity) were measured to confirm anticonvulsant effects of FA treatment, if indicated by the behavioral assays.

[5] = test system: homozygous scn1Lab−/− mutant zebrafish; assay: Locomotor (behavioral) assay in homozygous scn1Lab−/− mutant zebrafish larvae (Dravet syndrome model); assay type: in vivo; conditions: 25, 50 or 100 μM for 24 h, 6 dpf larvae; p<0.05 vs. VHC
Description: as §1

Swiss OF-1 mice [6] = assay: Step-through passive avoidance, dizocilpine-induced deficit; assay type: in vivo, mouse
[7] = target: T2, human β-2 adrenergic receptor; assay: Competitive radioligand binding assay, β2-adrenergic; conditions: test article 1×10^−6 and 1×10^−5 mol/L; human recombinant
DBA/1 mice [8] = assay: Seizure-induced respiratory arrest (S-IRA) in DBA/1 mice; assay type: in vivo, mouse
hNav1.5 = hNav1.5 (Homo sapiens, UniProt Q14524); assay: Ion channel profiling, IonFlux HT automated patch clamp, hNav1.5
DBA/1 mice [9] = assay: Audiogenic seizures (AGSz) in DBA/1 mice; assay type: in vivo, mouse
Sigma 1 [10] = target: T4, Sigma 1; assay: Sigma-1 receptor tissue bioassay, guinea pig vas deferens, antagonist activity ((+)SKF-10047-induced response); set-up: Segments of guinea pig vas deferens were suspended in 20-ml organ baths; from tissue; host or cells: guinea pig vas deferens
[11] = dizocilpine […], most active doses 0.3 and 1 mg/kg IP

T4 sequence (Q60492 whole entry): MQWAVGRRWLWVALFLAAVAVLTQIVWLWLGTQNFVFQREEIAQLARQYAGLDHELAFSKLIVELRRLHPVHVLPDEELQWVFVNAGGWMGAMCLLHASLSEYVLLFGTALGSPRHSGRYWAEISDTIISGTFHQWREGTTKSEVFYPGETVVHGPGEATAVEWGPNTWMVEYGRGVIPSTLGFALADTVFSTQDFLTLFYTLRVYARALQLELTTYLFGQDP
T2 sequence (P07550 whole entry): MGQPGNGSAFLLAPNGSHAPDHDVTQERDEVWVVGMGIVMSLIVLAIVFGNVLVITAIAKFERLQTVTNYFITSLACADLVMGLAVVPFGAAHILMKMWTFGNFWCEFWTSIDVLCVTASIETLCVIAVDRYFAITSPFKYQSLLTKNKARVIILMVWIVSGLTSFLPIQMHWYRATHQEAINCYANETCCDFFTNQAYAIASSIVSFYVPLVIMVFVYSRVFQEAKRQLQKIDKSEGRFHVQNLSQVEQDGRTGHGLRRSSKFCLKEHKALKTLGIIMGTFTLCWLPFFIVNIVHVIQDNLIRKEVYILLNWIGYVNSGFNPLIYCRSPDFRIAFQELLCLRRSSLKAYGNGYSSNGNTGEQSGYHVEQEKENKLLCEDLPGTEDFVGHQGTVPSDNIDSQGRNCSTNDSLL
Chain of hNav1.5 (Q14524 whole entry): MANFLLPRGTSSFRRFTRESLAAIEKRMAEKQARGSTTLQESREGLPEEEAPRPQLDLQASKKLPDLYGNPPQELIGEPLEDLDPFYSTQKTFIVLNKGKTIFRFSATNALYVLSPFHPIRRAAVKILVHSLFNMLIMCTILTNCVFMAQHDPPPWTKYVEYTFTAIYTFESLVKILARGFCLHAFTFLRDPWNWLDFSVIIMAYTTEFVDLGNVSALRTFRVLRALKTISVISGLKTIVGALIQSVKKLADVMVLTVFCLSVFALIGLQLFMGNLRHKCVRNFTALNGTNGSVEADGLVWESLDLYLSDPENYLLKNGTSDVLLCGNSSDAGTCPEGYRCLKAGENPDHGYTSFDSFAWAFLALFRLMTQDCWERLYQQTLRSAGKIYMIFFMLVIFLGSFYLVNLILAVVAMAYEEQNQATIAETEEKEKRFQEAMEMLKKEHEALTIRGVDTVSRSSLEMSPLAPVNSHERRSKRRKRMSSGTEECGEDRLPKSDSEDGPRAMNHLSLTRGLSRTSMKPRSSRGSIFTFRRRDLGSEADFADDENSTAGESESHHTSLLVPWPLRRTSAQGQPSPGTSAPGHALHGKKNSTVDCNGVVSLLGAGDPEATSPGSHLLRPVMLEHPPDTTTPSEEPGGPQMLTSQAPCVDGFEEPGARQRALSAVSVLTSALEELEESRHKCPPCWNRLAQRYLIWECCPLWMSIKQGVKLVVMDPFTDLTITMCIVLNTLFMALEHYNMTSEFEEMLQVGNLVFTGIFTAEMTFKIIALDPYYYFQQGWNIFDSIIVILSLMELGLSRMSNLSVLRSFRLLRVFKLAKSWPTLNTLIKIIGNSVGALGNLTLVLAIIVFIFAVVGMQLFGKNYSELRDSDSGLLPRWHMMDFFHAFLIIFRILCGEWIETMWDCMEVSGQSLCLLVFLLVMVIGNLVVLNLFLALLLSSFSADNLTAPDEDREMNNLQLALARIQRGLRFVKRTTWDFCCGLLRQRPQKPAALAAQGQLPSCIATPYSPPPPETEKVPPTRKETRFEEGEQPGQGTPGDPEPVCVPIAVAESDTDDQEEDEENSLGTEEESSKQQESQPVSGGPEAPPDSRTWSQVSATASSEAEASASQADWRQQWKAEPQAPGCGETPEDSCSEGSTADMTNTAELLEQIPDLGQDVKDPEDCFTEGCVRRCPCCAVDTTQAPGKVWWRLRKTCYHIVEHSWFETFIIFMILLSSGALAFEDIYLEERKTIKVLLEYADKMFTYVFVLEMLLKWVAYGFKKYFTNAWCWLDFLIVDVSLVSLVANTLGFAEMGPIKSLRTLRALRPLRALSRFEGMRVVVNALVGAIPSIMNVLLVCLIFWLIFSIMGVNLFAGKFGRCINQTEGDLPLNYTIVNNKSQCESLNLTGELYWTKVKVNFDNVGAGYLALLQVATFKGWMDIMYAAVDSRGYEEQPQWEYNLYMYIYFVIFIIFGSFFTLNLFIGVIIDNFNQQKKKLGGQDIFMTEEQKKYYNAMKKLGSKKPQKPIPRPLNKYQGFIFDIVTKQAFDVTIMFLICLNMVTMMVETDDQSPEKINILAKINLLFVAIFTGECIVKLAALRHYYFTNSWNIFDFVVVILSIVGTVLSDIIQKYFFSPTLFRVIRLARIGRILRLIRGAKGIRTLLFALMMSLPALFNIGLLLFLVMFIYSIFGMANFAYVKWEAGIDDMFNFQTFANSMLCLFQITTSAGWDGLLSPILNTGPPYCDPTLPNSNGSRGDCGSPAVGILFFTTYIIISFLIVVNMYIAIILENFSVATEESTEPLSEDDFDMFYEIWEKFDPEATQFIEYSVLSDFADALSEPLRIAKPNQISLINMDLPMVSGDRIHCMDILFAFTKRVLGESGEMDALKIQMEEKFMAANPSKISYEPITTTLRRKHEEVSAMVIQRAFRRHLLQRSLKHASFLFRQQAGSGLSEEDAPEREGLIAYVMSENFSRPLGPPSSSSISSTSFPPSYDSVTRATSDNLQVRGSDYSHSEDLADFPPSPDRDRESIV

CCNC(C)Cc1cccc(C(F)(F)F)c1 (racemic) [fenfluramine, (RS)—N-ethyl-1-[3-(trifluoromethyl)phenyl]propan-2-amine]
inhibition of receptor binding (tracer) (Na channel): significantly inhibit
dizocilpine-induced deficit of spontaneous alternation (Swiss OF-1 mice [1]; [11]): significantly attenuated
interaction with PRE-084 (sigma-1 receptor behaviour in vivo) (Swiss OF-1 mice [1]; fenfluramine at maximal inactive dose (0.1), Y-maze and passive avoidance data): behaves as a sigma-1 receptor PAM
antagonist activity at the beta-2 adrenergic receptor [2]: some antagonist activity
inhibition of receptor binding (tracer) (Sigma non-selective): significantly inhibit
IC50 (serotonin 5-HT1A): 573 nM
Ki (serotonin 5-HT1A): 327 nM
inhibition of receptor binding (tracer) (serotonin 5-HT1A; test article 1×10^−6 and 1×10^−5 mol/L, rat cerebral cortex): significantly inhibit
effect on twitch contraction amplitude (Sigma 1 [3]): did not significantly affect
epileptiform brain activity (LFP recordings) [4]: anti-epileptiform activity was consistently confirmed
epileptiform behavior (locomotor activity) [5]: significantly decreased
dose attenuating dizocilpine-induced deficit in passive avoidance response (minimal active dose) (Swiss OF-1 mice [6]; IP, 0.1 mg/kg not active): 0.3 mg/kg
dizocilpine-induced deficit of passive avoidance learning (Swiss OF-1 mice [6]; [11]): significantly attenuated
inhibition of receptor binding (tracer) [7]: significantly inhibit
effect on seizures and S-IRA (DBA/1 mice [8]; 5 mg/kg): ineffective
S-IRA (DBA/1 mice [8]; 15 mg/kg, at 16h, p<0.001): selective S-IRA blocking effect
time at which S-IRA susceptibility returned (DBA/1 mice [8]; 40 mg/kg): 72 h
S-IRA incidence and seizure severity (DBA/1 mice [8]; 10-20 mg/kg, at 8h): reduction in S-IRA incidence and seizure severity
S-IRA susceptibility and seizure severity (DBA/1 mice [8]; 10 and 15 mg/kg, at 12h): significantly (p<0.01) reduced S-IRA susceptibility and seizure severity
ED50 (DBA/1 mice [8]; Mus musculus, ip, 0.5 h, read-out: ED50, blockade of seizure-induced respiratory arrest (S-IRA)): 18.6 mg/kg
time by which susceptibility to seizure and S-IRA returned (DBA/1 mice [8]; time course study, 5-20 mg/kg): ≤ 48 h
IC50 (hNav1.5): > 30000 nM
seizure severity (DBA/1 mice [9]; 15 mg/kg, at 16h, p<0.05): significantly reduced seizure severity
time at which seizure susceptibility returned (DBA/1 mice [9]; 40 mg/kg): 48 h
seizures (DBA/1 mice [9]; 40 mg/kg, at 30 min, p<0.001): completely blocked seizures
ED50 (DBA/1 mice [9]; Mus musculus, ip, 0.5 h, i.p., at 30 min, read-out: ED50, blockade of susceptibility to audiogenic seizures (AGSz)): 31 mg/kg
ED50, blockade of susceptibility to audiogenic seizures (AGSz) (DBA/1 mice [9]; i.p., at 30 min, listed as FFA): 21.4 mg/kg
behaviour at the sigma receptor (mode of action) (Sigma 1 [10]; conclusion from guinea pig vas deferens tissue bioassay): positive allosteric modulators
effect on the (+)SKF-10,047-induced increase in twitch contraction amplitude (Sigma 1 [10]; field-stimulated guinea pig vas deferens, (+)SKF-10047 100 μM): slightly increased
